According to patent US10544147B2, “Purine inhibitors of human phosphatidylinositol 3-kinase delta” (MERCK SHARP & DOHME CORP., priority 2016, dated 2020):

Tests used:
PI3Kdelta = PI3Kdelta (Homo sapiens (Human), UniProt O00329); assay: HTRF PI3K biochemical assay, delta isoform; conditions: 0.3 nM enzyme, 100 uM ATP, 50 uM PIP2; form screened (neutral or TFA salt)
Procedure: (§1) HTRF PI3K Biochemical Assay to Measure Intrinsic Potency of Compound Inhibitors
(§2) This loss of signal is nonlinear with respect to both increasing product and time. This non-linear detection will impact accuracy of IC50 calculations; therefore, there is a need for a correction factor to obtain more accurate IC50 values. This correction is derived from a PIP3 standard curve run in a separate assay plate. All data were calculated using the ratio of acceptor (APC) to donor (Europium) fluorescence in each well of the assay plate. […] An IC50 was then calculated fitting the % inhibition data to the equation: % inhibition=min+(Max−min)/1+([inhibitor]/IC50)^n) where min is the % inhibition with inhibitor, max is the signal in DMSO control, and n is the Hill slope.
(§3) The biological data was collected using the methodology described above.

PI3Kalpha = PI3Kalpha (Homo sapiens (Human), UniProt P42336); assay: HTRF PI3K biochemical assay, alpha isoform (selectivity versus delta); conditions: ratio PI3K-alpha IC50 value/PI3K-delta IC50 value
Sequence of PI3Kalpha (P42336 whole entry, canonical isoform): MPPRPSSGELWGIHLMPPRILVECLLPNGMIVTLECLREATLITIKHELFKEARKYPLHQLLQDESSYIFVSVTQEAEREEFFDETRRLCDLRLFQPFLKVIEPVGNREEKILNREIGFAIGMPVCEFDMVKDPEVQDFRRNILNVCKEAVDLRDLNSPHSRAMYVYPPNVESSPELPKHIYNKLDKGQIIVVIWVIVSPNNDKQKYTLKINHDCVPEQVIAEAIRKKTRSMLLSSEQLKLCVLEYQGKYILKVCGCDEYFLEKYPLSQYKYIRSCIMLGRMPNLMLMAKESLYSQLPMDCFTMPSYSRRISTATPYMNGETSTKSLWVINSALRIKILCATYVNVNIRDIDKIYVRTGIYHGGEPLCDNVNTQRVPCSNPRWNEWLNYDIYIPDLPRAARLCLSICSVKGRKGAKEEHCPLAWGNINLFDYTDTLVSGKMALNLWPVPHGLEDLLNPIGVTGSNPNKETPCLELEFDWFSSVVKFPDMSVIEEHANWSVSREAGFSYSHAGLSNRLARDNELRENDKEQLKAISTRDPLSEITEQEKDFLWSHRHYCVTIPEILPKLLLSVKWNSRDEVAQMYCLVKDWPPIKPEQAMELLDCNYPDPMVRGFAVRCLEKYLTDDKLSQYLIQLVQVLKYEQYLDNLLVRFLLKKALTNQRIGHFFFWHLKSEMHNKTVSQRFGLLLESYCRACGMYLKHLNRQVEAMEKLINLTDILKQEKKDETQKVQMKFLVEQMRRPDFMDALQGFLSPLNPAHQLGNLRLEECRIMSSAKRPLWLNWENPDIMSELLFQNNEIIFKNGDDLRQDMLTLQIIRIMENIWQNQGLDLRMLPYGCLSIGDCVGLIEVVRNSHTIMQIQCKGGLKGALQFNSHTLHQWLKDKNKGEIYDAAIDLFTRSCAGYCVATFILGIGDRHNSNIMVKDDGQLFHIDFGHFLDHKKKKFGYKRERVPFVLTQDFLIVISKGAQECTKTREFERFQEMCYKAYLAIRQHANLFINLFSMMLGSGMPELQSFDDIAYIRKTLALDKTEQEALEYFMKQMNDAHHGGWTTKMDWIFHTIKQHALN
Sequence of PI3Kalpha (P27986 whole entry partner, canonical isoform): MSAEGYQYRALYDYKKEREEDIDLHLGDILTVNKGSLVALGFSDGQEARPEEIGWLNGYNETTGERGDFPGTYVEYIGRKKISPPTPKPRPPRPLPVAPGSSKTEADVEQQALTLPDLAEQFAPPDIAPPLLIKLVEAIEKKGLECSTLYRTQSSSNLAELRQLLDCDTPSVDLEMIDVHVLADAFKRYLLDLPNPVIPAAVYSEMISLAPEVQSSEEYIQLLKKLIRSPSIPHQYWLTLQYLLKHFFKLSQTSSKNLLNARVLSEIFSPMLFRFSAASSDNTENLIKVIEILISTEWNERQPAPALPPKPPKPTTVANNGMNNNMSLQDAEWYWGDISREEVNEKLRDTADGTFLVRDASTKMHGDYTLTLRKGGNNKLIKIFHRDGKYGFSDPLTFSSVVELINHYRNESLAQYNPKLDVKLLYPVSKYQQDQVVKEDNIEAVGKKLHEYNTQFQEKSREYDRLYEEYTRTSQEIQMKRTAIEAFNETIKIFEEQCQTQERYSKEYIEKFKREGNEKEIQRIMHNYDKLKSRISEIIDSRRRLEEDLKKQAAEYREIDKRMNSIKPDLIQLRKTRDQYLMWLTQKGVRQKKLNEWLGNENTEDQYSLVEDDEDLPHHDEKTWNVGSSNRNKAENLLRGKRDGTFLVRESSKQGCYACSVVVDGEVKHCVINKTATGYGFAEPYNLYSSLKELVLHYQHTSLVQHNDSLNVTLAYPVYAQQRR
Procedure: as §1, §2, §3
The determination of relative selectivity for a given compound is defined as the relative ratio of the (PI3K-alphaIC50 value/PI3K-delta IC50 value).

Sequence of PI3Kdelta (O00329 whole entry, canonical isoform): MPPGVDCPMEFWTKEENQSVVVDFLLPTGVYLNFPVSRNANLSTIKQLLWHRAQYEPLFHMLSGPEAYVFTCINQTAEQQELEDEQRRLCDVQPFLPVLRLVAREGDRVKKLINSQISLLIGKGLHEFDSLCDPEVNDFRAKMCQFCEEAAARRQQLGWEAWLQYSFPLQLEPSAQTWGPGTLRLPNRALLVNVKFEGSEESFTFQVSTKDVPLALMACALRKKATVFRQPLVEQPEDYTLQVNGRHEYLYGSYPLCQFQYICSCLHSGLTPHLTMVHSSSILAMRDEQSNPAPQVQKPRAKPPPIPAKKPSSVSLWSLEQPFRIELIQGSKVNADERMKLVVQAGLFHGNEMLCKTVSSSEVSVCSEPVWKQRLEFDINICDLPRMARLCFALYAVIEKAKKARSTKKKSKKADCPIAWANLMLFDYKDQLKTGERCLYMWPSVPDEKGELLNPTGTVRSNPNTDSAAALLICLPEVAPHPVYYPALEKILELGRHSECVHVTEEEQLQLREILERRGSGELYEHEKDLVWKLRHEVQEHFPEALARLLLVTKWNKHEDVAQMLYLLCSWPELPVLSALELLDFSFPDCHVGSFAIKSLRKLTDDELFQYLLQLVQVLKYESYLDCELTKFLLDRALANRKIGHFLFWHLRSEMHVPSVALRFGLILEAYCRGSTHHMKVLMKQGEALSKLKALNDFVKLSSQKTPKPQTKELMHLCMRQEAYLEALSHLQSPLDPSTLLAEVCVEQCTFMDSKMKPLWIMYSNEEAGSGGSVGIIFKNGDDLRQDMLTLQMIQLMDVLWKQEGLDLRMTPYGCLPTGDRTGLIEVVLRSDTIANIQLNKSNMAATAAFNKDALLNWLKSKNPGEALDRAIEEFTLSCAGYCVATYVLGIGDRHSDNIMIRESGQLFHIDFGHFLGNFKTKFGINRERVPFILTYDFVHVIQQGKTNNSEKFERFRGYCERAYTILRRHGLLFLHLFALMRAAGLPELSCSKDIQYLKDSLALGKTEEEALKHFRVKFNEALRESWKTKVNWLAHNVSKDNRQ
Sequence of PI3Kdelta (P27986 whole entry partner, canonical isoform): as the sequence (P27986 whole entry partner, canonical isoform) above

Row | SMILES | IC50 (PI3Kdelta) [nM] | Relative Selectivity versus PI3Kalpha (PI3Kalpha)
1 | CCn1c(-c2cnc(C)nc2)nc2c(-c3ccc4c(c3)C(C)(NC[C@@H]3CCCO3)C(=O)N4)ncnc21 (mixture of isomers) [Compound 2-21, 5-[9-ethyl-8-(2-methylpyrimidin-5-yl)-9H-purin-6-yl]-3(R and S)-methyl-3-{[(2S)-tetrahydrofuran-2-ylmethyl]amino}-1,3-dihydro-2H-indol-2-one] | 22 | >10
2 | CCn1c(-c2cnc(C)nc2)nc2c(-c3ccc4c(c3)C(C)(NC[C@H]3CCCO3)C(=O)N4)ncnc21 (mixture of isomers) [Compound 2-22, 5-[9-ethyl-8-(2-methylpyrimidin-5-yl)-9H-purin-6-yl]-3(R and S)-methyl-3-{[(2R)-tetrahydrofuran-2-ylmethyl]amino}-1,3-dihydro-2H-indol-2-one] | 26 | >10
3 | CCn1c(-c2cnc(C)nc2)nc2c(-c3ccc4c(c3)C(C)(N3CCOCC35CCC5)C(=O)N4)ncnc21 (racemic) [Compound 2-23, (R and S)-5-[9-ethyl-8-(2-methylpyrimidin-5-yl)-9H-purin-6-yl]-3-methyl-3-(8-oxa-5-azaspiro[3.5]non-5-yl)-1,3-dihydro-2H-indol-2-one] | 7 | >10
4 | CCn1c(-c2cnc(C)nc2)nc2c(-c3ccc4c(c3)C(C)(N3CCn5nccc5C3)C(=O)N4)ncnc21 (racemic) [Compound 2-24, (R and S)-3-(6,7-dihydropyrazolo[1,5-a]pyrazin-5(4H)-yl)-5-[9-ethyl-8-(2-methylpyrimidin-5-yl)-9H-purin-6-yl]-3-methyl-1,3-dihydro-2H-indol-2-one] | 67 | >10
5 | CCn1c(-c2cnc(C)nc2)nc2c(-c3ccc4c(c3)C(C)(NC3CCOCC3)C(=O)N4)ncnc21 (racemic) [Compound 2-25, (R and S)-5-[9-ethyl-8-(2-methylpyrimidin-5-yl)-9H-purin-6-yl]-3-methyl-3-(tetrahydro-2H-pyran-4-ylamino)-1,3-dihydro-2H-indol-2-one] | 28 | >10
6 | CCn1c(-c2cnc(C)nc2)nc2c(-c3ccc4c(c3)C(C)(N3C[C@H]5C[C@@H]3CO5)C(=O)N4)ncnc21 (mixture of isomers) [Compound 2-26, 5-[9-ethyl-8-(2-methylpyrimidin-5-yl)-9H-purin-6-yl]-3(R and S)-methyl-3-[(1R,4R)-2-oxa-5-azabicyclo[2.2.1]hept-5-yl]-1,3-dihydro-2H-indol-2-one] | 58 | >10
7 | CCn1c(-c2cnc(C)nc2)nc2c(-c3ccc4c(c3)C(C)(N[C@@H](C)C3CCC3)C(=O)N4)ncnc21 (mixture of isomers) [Compound 2-27, 3-{[(1S)-1-cyclobutylethyl]amino}-5-[9-ethyl-8-(2-methylpyrimidin-5-yl)-9H-purin-6-yl]-3(R and S)-methyl-1,3-dihydro-2H-indol-2-one] | 13 | >10
8 | CCn1c(-c2cnc(C)nc2)nc2c(-c3ccc4c(c3)C(C)(N3CC5(CCOC5)C3)C(=O)N4)ncnc21 (racemic) [Compound 2-28, (R and S)-5-[9-ethyl-8-(2-methylpyrimidin-5-yl)-9H-purin-6-yl]-3-methyl-3-(6-oxa-2-azaspiro[3.4]oct-2-yl)-1,3-dihydro-2H-indol-2-one] | 49 | >10
9 | CCn1c(-c2cnc(C)nc2)nc2c(-c3ccc4c(c3)C(C)(CC(C)C)C(=O)N4)ncnc21 (single isomer, unassigned) [Compound 1-1, 5-(9-Ethyl-8-(2-methylpyrimidin-5-yl)-9H-purin-6-yl)-3-isobutyl-3-methylindolin-2-one] | 4 | >10
10 | CCn1c(-c2cnc(C)nc2)nc2c(-c3ccc4c(c3)C(C)(CC(C)C)C(=O)N4)ncnc21 (single isomer, unassigned) [Compound 1-2, 5-(9-Ethyl-8-(2-methylpyrimidin-5-yl)-9H-purin-6-yl)-3-isobutyl-3-methylindolin-2-one] | 121 | >10
11 | CCn1c(-c2cnc(C)nc2)nc2c(-c3ccc4c(c3)C(C)(CC3(C)COC3)C(=O)N4)ncnc21 (single isomer, unassigned) [Compound 1-5, (R or S)-5-[9-ethyl-8-(2-methylpyrimidin-5-yl)-9H-purin-6-yl]-3-methyl-3-[(3-methyloxetan-3-yl)methyl]-1,3-dihydro-2H-indol-2-one] | 177 | 3
12 | CCn1c(-c2cnc(C)nc2)nc2c(-c3ccc4c(c3)C(C)(CC3(C)COC3)C(=O)N4)ncnc21 (single isomer, unassigned) [Compound 1-6, (R or S)-5-[9-ethyl-8-(2-methylpyrimidin-5-yl)-9H-purin-6-yl]-3-methyl-3-[(3-methyloxetan-3-yl)methyl]-1,3-dihydro-2H-indol-2-one] | 15 | >10
13 | CCn1c(-c2cnc(C)nc2)nc2c(-c3ccc4c(c3)C(C)(CC3CC3)C(=O)N4C)ncnc21 (single isomer, unassigned) [Compound 1-9, 3-(Cyclopropylmethyl)-5-(9-ethyl-8-(2-methylpyrimidin-5-yl)-9H-purin-6-yl)-1,3-dimethylindolin-2-one] | 17 | >10
14 | CCn1c(-c2cnc(C)nc2)nc2c(-c3ccc4c(c3)C(C)(CC3CC3)C(=O)N4C)ncnc21 (single isomer, unassigned) [Compound 1-10, 3-(Cyclopropylmethyl)-5-(9-ethyl-8-(2-methylpyrimidin-5-yl)-9H-purin-6-yl)-1,3-dimethylindolin-2-one] | 194 | >10
15 | CCn1c(-c2cnc(C)nc2)nc2c(-c3cnc4c(c3)C(C)(CC(C)C)C(=O)N4)ncnc21 (single isomer, unassigned) [Compound 1-12, 5-(9-ethyl-8-(2-methylpyrimidin-5-yl)-9H-purin-6-yl)-3-isobutyl-3-methyl-1,3-dihydro-2H-pyrrolo[2,3-b]pyridin-2-one] | 9 | >10
16 | CCn1c(-c2cnc(C)nc2)nc2c(-c3cnc4c(c3)C(C)(CC(C)C)C(=O)N4)ncnc21 (single isomer, unassigned) [Compound 1-13, 5-(9-ethyl-8-(2-methylpyrimidin-5-yl)-9H-purin-6-yl)-3-isobutyl-3-methyl-1,3-dihydro-2H-pyrrolo[2,3-b]pyridin-2-one] | 370 | >10
17 | CCn1c(-c2cnc(C)nc2)nc2c(-c3cnc4c(c3)C(C)(CC3CC3)C(=O)N4)ncnc21 (single isomer, unassigned) [Compound 1-14, (R or S)-3-(cyclopropylmethyl)-5-(9-ethyl-S-(2-methylpyrimidin-5-yl)-9H-purin-6-yl)-3-methyl-1,3-dihydro-2H-pyrrolo[2,3-b]pyridin-2-one] | 16 | >10
18 | CCn1c(-c2cnc(C)nc2)nc2c(-c3cnc4c(c3)C(C)(CC3CC3)C(=O)N4)ncnc21 (single isomer, unassigned) [Compound 1-15, (R or S)-3-(cyclopropylmethyl)-5-(9-ethyl-8-(2-methylpyrimidin-5-yl)-9H-purin-6-yl)-3-methyl-1,3-dihydro-2H-pyrrolo[2,3-b]pyridin-2-one] | 224 | >10
